Where two headings read alike, the source gives them in different places.
Columns and labels:
[1] = Andersen Cascade Impactor (ACI) deposition studies of HFA solution pMDIs; assay type: physicochemical
Protocol: All impaction studies were conducted with formulations contained in cut edge anodised aluminium cans fitted with 50 μl or 100 μl valves. The studies were carried out using an Andersen Cascade Impactor (ACI) fitted with a USP XXII metal throat entry port. The ACI was operated at a flow rate of 28.3±2 l min^−1. All solution HFA formulations were discharged into the ACI through an actuator having an orifice diameter of 0.22 mm. Deposition of the drug on each ACI plate was determined by high pressure liquid chromatography (HPLC). MMAD values and corresponding geometric standard deviations (GSD) were calculated from plots of the cumulative percentage undersize of drug collected on each ACI plate (probit scale), against the upper cut off diameter for each respective ACI plate (log 10 scale).

[2] = 0.1% w/v drug, HFA134a
[3] = cited from earlier work
[4] = intranasal aqueous solution with dimethyl-β-cyclodextrin, compared to the IV route; cited from earlier work
[5] = porous particles, Andersen cascade Impaction; cited from earlier work
[6] = transdermal patches; cited from earlier work
[7] = 0.1% w/v (50 μg/dose), 5% w/w ethanol, 0.1% w/w glycerol, HFA134a, ten shots

With `CCCCCCC(=O)O[C@H]1CC[C@H]2[C@@H]3CCc4cc(O)ccc4[C@H]3CC[C@]12C` [Formulation 17-Enanthate, β-oestradiol enanthate] the GSD [1, 7] was 1.7, the MMAD [1, 7] was 1.5 μm and the “fine particle dose (FPD)” value [1, 7] was 38.8 µg. For the same compound, the “fine particle fraction (FPF)” value [1, 7] was 78.5%.

In the case of `C[C@]12CC[C@@H]3c4ccc(OC(=O)c5ccccc5)cc4CC[C@H]3[C@@H]1CC[C@@H]2O` [Formulation 3-Benzoate], the Solubility ([2]; 13% w/w ethanol, no glycerol) is reported as “Insoluble”.

In the case of `C[C@]12CC[C@@H]3c4ccc(O)cc4CC[C@H]3[C@@H]1CC[C@@H]2OC(=O)CCC1CCCC1` [Formulation 17-Cypionate], the Solubility ([2]; 5% w/w ethanol, 0.1% w/w glycerol) is reported as “Insoluble”.

In the case of “β-oestradiol-3,17-dipropionate [β-oestradiol 3,17-dipropionate]”, the MMAD ([1]; 200 μg/dose (0.4% w/v), 0% w/w ethanol, HFA 134a) is reported as 0.90 μm, the MMAD ([1]; 200 μg/dose (0.4% w/v), 2% w/w ethanol, HFA 134a) is reported as 1.50 μm and the MMAD ([1]; 200 μg/dose (0.4% w/v), 5% w/w ethanol, HFA 134a) is reported as 1.50 μm. The MMAD ([1]; 500 μg/dose (1% w/v), 5% w/w ethanol, HFA 134a) was 1.90 μm.

In the case of 17β-Oestradiol, the peak plasma concentration ([3]; sublingual, 0.25 mg) is given as 294 pg/mL, the peak plasma concentration ([3]; sublingual, 0.5 mg) is given as 245 pg/mL and the peak plasma concentration ([3]; sublingual, 1.0 mg) is given as 451 pg/mL. The “time to peak plasma concentration” value ([3]; sublingual, 0.25, 0.5 and 1.0 mg) was at most 1 h, the 17β-oestradiol levels ([3]; sublingual, after 6 hours) was “less than 60 pg/ml” and the bioavailability [4] was “approximately 65%”. For the same compound, the fine particle fraction [5] was “approximately 33%” and the “mean serum oestradiol levels” value [6] was 70 to 90 pg/mL.

Source: patent US20050209207A1, “Aerosol formulations containing esters of 3,17-dihydroxy oestratriene derivatives for pulmonary delivery” (priority 2002, published 2005)
